According to the supplement of paper PMC10307832:

Assays:
Experiment in all cases: relative viability (nuclei count vs DMSO), 5 days (fraction); higher = more cells survive
IPA-3 + Linsitinib = compound: C1=CC=C2C(=C1)C=CC(=C2SSC3=C(C=CC4=CC=CC=C43)O)O [IPA-3] + C[C@]1(O)C[C@@H](c2nc(-c3ccc4ccc(-c5ccccc5)nc4c3)c3c(N)nccn32)C1 [Linsitinib] (partner 1 µM)
Procedure, shortened: (§1)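 Lung cancer cell lines were seeded in 1536-well plates and dosed by pin tool the next day, with either a single drug or a fixed anchor-drug dose combined with five library-drug doses (not always all listed) spaced in √10 steps. Five days later, one step fixed the cells and stained their nuclei (final 0.05% Triton X-100, 1% formaldehyde, 1 ug/ml Hoechst), and nuclei were counted on 4× images. Relative viability is the nuclei count in treated wells divided by the count in vehicle wells, and each value is the median of duplicate plates.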

Doramapimod + Decitabine = compound: Cc1ccc(-n2nc(C(C)(C)C)cc2NC(=O)Nc2ccc(OCCN3CCOCC3)c3ccccc23)cc1 [Doramapimod] + Nc1ncn([C@H]2C[C@H](O)[C@@H](CO)O2)c(=O)n1 [Decitabine] (partner 2 µM)
Procedure, shortened: as §1

Doramapimod + Foretinib = compound: Cc1ccc(-n2nc(C(C)(C)C)cc2NC(=O)Nc2ccc(OCCN3CCOCC3)c3ccccc23)cc1 [Doramapimod] + COc1cc2c(Oc3ccc(NC(=O)C4(C(=O)Nc5ccc(F)cc5)CC4)cc3F)ccnc2cc1OCCCN1CCOCC1 [Foretinib] (partner 0.25 µM)
Procedure, shortened: as §1

RAF265 + Alpelisib = compound: Cn1c(Nc2ccc(C(F)(F)F)cc2)nc2cc(Oc3ccnc(-c4ncc(C(F)(F)F)[nH]4)c3)ccc21 [RAF265] + Cc1nc(NC(=O)N2CCC[C@H]2C(N)=O)sc1-c1ccnc(C(C)(C)C(F)(F)F)c1 [Alpelisib] (partner 2 µM)
Procedure, shortened: as §1

Cell Line | relative viability (IPA-3 + Linsitinib; first compound 0.2 µM) | relative viability (IPA-3 + Linsitinib; first compound 0.6325 µM) | relative viability (IPA-3 + Linsitinib; first compound 2 µM) | relative viability (IPA-3 + Linsitinib; first compound 6.325 µM) | relative viability (IPA-3 + Linsitinib; first compound 20 µM) | relative viability (Doramapimod + Decitabine; first compound 0.02 µM) | relative viability (Doramapimod + Decitabine; first compound 0.06325 µM) | relative viability (Doramapimod + Decitabine; first compound 0.2 µM) | relative viability (Doramapimod + Decitabine; first compound 0.6325 µM) | relative viability (Doramapimod + Decitabine; first compound 2 µM) | relative viability (Doramapimod + Foretinib; first compound 0.02 µM) | relative viability (Doramapimod + Foretinib; first compound 0.06325 µM) | relative viability (Doramapimod + Foretinib; first compound 0.2 µM) | relative viability (Doramapimod + Foretinib; first compound 0.6325 µM) | relative viability (Doramapimod + Foretinib; first compound 2 µM) | relative viability (RAF265 + Alpelisib; first compound 0.01 µM) | relative viability (RAF265 + Alpelisib; first compound 0.03162 µM) | relative viability (RAF265 + Alpelisib; first compound 0.1 µM) | relative viability (RAF265 + Alpelisib; first compound 0.3162 µM) | relative viability (RAF265 + Alpelisib; first compound 1 µM)
201T | 0.986 | 0.992 | 1.04 | 1.04 | 1.09 | 0.857 | 0.863 | 0.886 | 0.921 | 0.925 | 1.01 | 1.03 | 1.1 | 1.41 | 0.974 | 0.981 | 1.02 | 1.07 | 1.06 | 0.981
NCI-H1734 | 0.995 | 0.849 | 0.884 | 0.92 | 1.07 | 0.476 | 0.47 | 0.489 | 0.51 | 0.363 | 0.808 | 0.805 | 0.802 | 0.767 | 0.598 | 0.668 | 0.529 | 0.589 | 0.532 | 0.333
NCI-H520 | 1.02 | 0.951 | 1.03 | 0.855 | 0.982 | 0.408 | 0.46 | 0.536 | 0.552 | 0.424 | 0.63 | 0.864 | 0.656 | 0.674 | 0.498 | 0.819 | 0.754 | 0.889 | 0.916 | 0.534
NCI-H1355 | 0.942 | 0.82 | 0.786 | 0.742 | 0.895 | 0.372 | 0.357 | 0.347 | 0.407 | 0.359 | 0.95 | 0.986 | 0.922 | 0.972 | 0.939 | 0.829 | 0.791 | 0.794 | 0.427 | 0.229
NCI-H1915 | 1.12 | 1.13 | 1.11 | 1.08 | 1.09 | 0.24 | 0.256 | 0.256 | 0.261 | 0.255 | 1.02 | 1.13 | 1.18 | 1.12 | 0.995 | 1.07 | 0.945 | 0.908 | 0.543 | 0.296
BEN | 0.986 | 1.01 | 0.974 | 1.05 | 1.18 | 0.69 | 0.769 | 0.799 | 0.512 | 0.675 | 0.663 | 0.639 | 0.603 | 0.469 | 0.676 | 1.08 | 1.05 | 1.2 | 1.1 | 0.814
NCI-H3122 | 1.05 | 1.01 | 0.961 | 1.08 | 1.05 | 0.427 | 0.445 | 0.394 | 0.491 | 0.415 | 0.921 | 0.911 | 0.922 | 0.963 | 0.993 | 0.909 | 0.868 | 0.783 | 0.559 | 0.417
SK-MES-1 | 1.13 | 1.01 | 1.07 | 1.07 | 1.02 | 0.329 | 0.355 | 0.356 | 0.424 | 0.315 | 0.965 | 0.864 | 0.773 | 1.04 | 0.816 | 0.942 | 0.807 | 0.337 | 0.242 | 0.183
